Assay: Toxicity in naive mouse assessed as drug tolerance at 20 mg/kg, sc administered as single dose every 4 hrs for 24 hrs
Assay type: organism-based
Details: in vivo

For COLISTIN, the Activity was “Non-Toxic”.
